Measured values reported in the NIST ThermoML archive (doi:10.1016/j.tca.2016.05.013).

What was measured:
[1] = mn = molality of the nth substance listed, in mol/kg; settings: 86.8 kPa, Liquid; for viscosity: Falling or rolling sphere viscometry; for speed of sound: Frequency=3 MHz, Sing-around technique in a fixed-path interferometer; for mass density: Vibrating tube method
[2] = refractive index (Na D-line) (dimensionless); mn = molality of the nth substance listed, in mol/kg; settings: 86.8 kPa, Liquid, Standard Abbe refractometry

CCCCn1cc[n+](C)c1.O=C([O-])c1ccccc1O [1-butyl-3-methylimidazolium salicylate] + O
Settings	mass density, [1] [kg/m3]	refractive index, [2]	speed of sound, [1] [m/s]	viscosity, [1] [mPa·s]
288.15 K, m1 = 0.1012	–	–	–	1.289
288.15 K, m1 = 0.1032	1004.94	1.3381	1484.4	1.296
288.15 K, m1 = 0.1055	1005.04	1.3383	1484.4	–
288.15 K, m1 = 0.2001	1010.28	1.3427	1499.1	–
288.15 K, m1 = 0.2005	1010.45	1.3429	1499.5	–
288.15 K, m1 = 0.2124	–	–	–	1.432
288.15 K, m1 = 0.2146	–	–	–	1.44
288.15 K, m1 = 0.2965	1015.79	1.3479	1513.9	–
288.15 K, m1 = 0.3002	1015.82	1.3479	1513.6	–
288.15 K, m1 = 0.3146	–	–	–	1.535
288.15 K, m1 = 0.3152	–	–	–	1.536
298.15 K, m1 = 0.1012	–	–	–	1.037
298.15 K, m1 = 0.1032	1002.65	1.3376	1512	1.042
298.15 K, m1 = 0.1055	1002.65	1.3376	1511.9	–
298.15 K, m1 = 0.2001	1007.67	1.342	1524.5	–
298.15 K, m1 = 0.2005	1007.91	1.342	1524.8	–
298.15 K, m1 = 0.2124	–	–	–	1.159
298.15 K, m1 = 0.2146	–	–	–	1.162
298.15 K, m1 = 0.2965	1012.99	1.3468	1537	–
298.15 K, m1 = 0.3002	1012.91	1.3468	1537	–
298.15 K, m1 = 0.3146	–	–	–	1.256
298.15 K, m1 = 0.3152	–	–	–	1.253
308.15 K, m1 = 0.1012	–	–	–	0.869
308.15 K, m1 = 0.1032	999.4	1.3365	1532.3	0.872
308.15 K, m1 = 0.1055	999.44	1.3365	1532.4	–
308.15 K, m1 = 0.2001	1004.28	1.3407	1543.5	–
308.15 K, m1 = 0.2005	1004.44	1.3408	1543.3	–
308.15 K, m1 = 0.2124	–	–	–	0.981
308.15 K, m1 = 0.2146	–	–	–	0.986
308.15 K, m1 = 0.2965	1009.39	1.3456	1553.8	–
308.15 K, m1 = 0.3002	1009.41	1.3455	1553.8	–
308.15 K, m1 = 0.3146	–	–	–	1.078
308.15 K, m1 = 0.3152	–	–	–	1.076
318.15 K, m1 = 0.1012	–	–	–	0.748
318.15 K, m1 = 0.1032	995.42	1.335	1546.8	0.751
318.15 K, m1 = 0.1055	995.43	1.3352	1547.3	–
318.15 K, m1 = 0.2001	1000.19	1.3393	1555.9	–
318.15 K, m1 = 0.2005	1000.27	1.3395	1556	–
318.15 K, m1 = 0.2124	–	–	–	0.87
318.15 K, m1 = 0.2146	–	–	–	0.876
318.15 K, m1 = 0.2965	1005.07	1.344	1565	–
318.15 K, m1 = 0.3002	1004.98	1.344	1564.8	–
318.15 K, m1 = 0.3146	–	–	–	0.962
318.15 K, m1 = 0.3152	–	–	–	0.96
